Data reported in PubChem BioAssay AID1259407 (Chemical Carcinogenesis Research Information System (CCRIS), 2018).
The source made the active and inactive calls. The rule behind the calls is not given here.

Tested on: CCRIS mutagenicity, Ames/micronucleus/aberration tests
Assay: CCRIS mutagenicity studies
[1] = Test System: AMES SALMONELLA TYPHIMURIUM, Strain/Indicator: TA100, Metabolic Activation: NONE, Method: PREINCUBATION
[2] = Test System: AMES SALMONELLA TYPHIMURIUM, Strain/Indicator: TA98, Metabolic Activation: HAMSTER, LIVER, S-9, AROCLOR 1254 (10%), Method: PREINCUBATION
[3] = Test System: AMES SALMONELLA TYPHIMURIUM, Strain/Indicator: TA98, Metabolic Activation: NONE, Method: PREINCUBATION
[4] = Test System: AMES SALMONELLA TYPHIMURIUM, Strain/Indicator: TA98, Metabolic Activation: RAT, LIVER, S-9, AROCLOR 1254 (10%), Method: PREINCUBATION
[5] = Test System: AMES SALMONELLA TYPHIMURIUM, Strain/Indicator: TA100, Metabolic Activation: HAMSTER, LIVER, S-9, AROCLOR 1254 (10%), Method: PREINCUBATION
[6] = Test System: AMES SALMONELLA TYPHIMURIUM, Strain/Indicator: TA100, Metabolic Activation: RAT, LIVER, S-9, AROCLOR 1254 (10%), Method: PREINCUBATION
[7] = Test System: AMES SALMONELLA TYPHIMURIUM, Strain/Indicator: TA1535, Metabolic Activation: HAMSTER, LIVER, S-9, AROCLOR 1254 (10%), Method: PREINCUBATION
[8] = Test System: AMES SALMONELLA TYPHIMURIUM, Strain/Indicator: TA1535, Metabolic Activation: NONE, Method: PREINCUBATION
[9] = Test System: AMES SALMONELLA TYPHIMURIUM, Strain/Indicator: TA1535, Metabolic Activation: RAT, LIVER, S-9, AROCLOR 1254 (10%), Method: PREINCUBATION
[10] = Test System: AMES SALMONELLA TYPHIMURIUM, Strain/Indicator: TA1537, Metabolic Activation: NONE, Method: PREINCUBATION

ClCCC(Br)CBr (stereo not given)
mutagenic call (Test System: AMES SALMONELLA TYPHIMURIUM, Strain/Indicator: TA100, Metabolic Activation: RAT, LIVER, MICROSOMES, PHENOBARBITAL, Method: PREINCUBATION): inactive; negative | mutagenic call (Test System: AMES SALMONELLA TYPHIMURIUM, Strain/Indicator: TA100, Metabolic Activation: RAT, LIVER, MICROSOMES, Method: PREINCUBATION): inactive; negative

CSc1ncnc2nc[nH]c12
mutagenic call (Test System: AMES SALMONELLA TYPHIMURIUM, Strain/Indicator: TA100, Metabolic Activation: NONE, Method: STANDARD PLATE): active; positive

Cc1cc(O)c2c(c1O)C(=O)c1cc(O)cc(O)c1C2=O
mutagenic call (Test System: AMES SALMONELLA TYPHIMURIUM, Strain/Indicator: TA1537, Metabolic Activation: NONE, Method: STANDARD PLATE): inactive; negative | mutagenic call (Test System: AMES SALMONELLA TYPHIMURIUM, Strain/Indicator: TA1537, Metabolic Activation: RAT, LIVER, S-9, PCB, Method: STANDARD PLATE): inactive; negative

CN(CC(O)CO)N=O (stereo not given)
mutagenic call (Test System: AMES SALMONELLA TYPHIMURIUM, Strain/Indicator: TA100, Metabolic Activation: HAMSTER, LIVER, S-9, 3-METHYLCHOLANTHRENE, Method: PREINCUBATION): active; positive | mutagenic call (Test System: AMES SALMONELLA TYPHIMURIUM, Strain/Indicator: TA100, Metabolic Activation: HAMSTER, LIVER, S-9, PHENOBARBITAL, Method: PREINCUBATION): active; positive | mutagenic call (Test System: AMES SALMONELLA TYPHIMURIUM, Strain/Indicator: TA100, Metabolic Activation: HAMSTER, LIVER, S-9, Method: PREINCUBATION): active; positive | mutagenic call (Test System: AMES SALMONELLA TYPHIMURIUM, Strain/Indicator: TA100, Metabolic Activation: MOUSE, LIVER, S-9, 3-METHYLCHOLANTHRENE, Method: PREINCUBATION): active; positive | mutagenic call (Test System: AMES SALMONELLA TYPHIMURIUM, Strain/Indicator: TA100, Metabolic Activation: MOUSE, LIVER, S-9, PHENOBARBITAL, Method: PREINCUBATION): active; positive | mutagenic call (Test System: AMES SALMONELLA TYPHIMURIUM, Strain/Indicator: TA100, Metabolic Activation: MOUSE, LIVER, S-9, Method: PREINCUBATION): active; positive | mutagenic call [1]: inactive; negative | mutagenic call (Test System: AMES SALMONELLA TYPHIMURIUM, Strain/Indicator: TA100, Method: PREINCUBATION): active; positive

CC(=O)c1ccc2c(c1)C(=O)C1(CC1)O2
mutagenic call (Test System: AMES SALMONELLA TYPHIMURIUM, Strain/Indicator: TA98, Metabolic Activation: NONE): inactive; negative | mutagenic call (Test System: AMES SALMONELLA TYPHIMURIUM, Strain/Indicator: TA98, Metabolic Activation: S-9): inactive; negative | mutagenic call (Test System: AMES SALMONELLA TYPHIMURIUM, Strain/Indicator: TA100, Metabolic Activation: NONE): inactive; negative | mutagenic call (Test System: AMES SALMONELLA TYPHIMURIUM, Strain/Indicator: TA100, Metabolic Activation: S-9): inactive; negative | mutagenic call (Test System: AMES SALMONELLA TYPHIMURIUM, Strain/Indicator: TA1535, Metabolic Activation: NONE): inactive; negative | mutagenic call (Test System: AMES SALMONELLA TYPHIMURIUM, Strain/Indicator: TA1535, Metabolic Activation: S-9): inactive; negative | mutagenic call (Test System: AMES SALMONELLA TYPHIMURIUM, Strain/Indicator: TA1537, Metabolic Activation: NONE): inactive; negative | mutagenic call (Test System: AMES SALMONELLA TYPHIMURIUM, Strain/Indicator: TA1537, Metabolic Activation: S-9): inactive; negative | mutagenic call (Test System: E. COLI, Strain/Indicator: WP2 (HCR), Metabolic Activation: NONE): inactive; negative | mutagenic call (Test System: E. COLI, Strain/Indicator: WP2 (HCR), Metabolic Activation: S-9): inactive; negative

COc1c2ccccc2[n+]([O-])c2occc12
mutagenic call (Test System: AMES SALMONELLA TYPHIMURIUM, Strain/Indicator: TA98, Metabolic Activation: NONE, Method: STANDARD PLATE): inactive; negative | mutagenic call (Test System: AMES SALMONELLA TYPHIMURIUM, Strain/Indicator: TA98, Metabolic Activation: RAT LIVER S-9, PHENOBARTITAL, Method: STANDARD PLATE): inactive; negative

O=C(O)C1=NN(c2ccc(S(=O)(=O)O)cc2)C(=O)C1N=Nc1ccc(S(=O)(=O)O)cc1.[Al] (stereo not given)
mutagenic call (Test System: AMES SALMONELLA TYPHIMURIUM, Strain/Indicator: TA97, Metabolic Activation: HAMSTER, LIVER, S-9, AROCLOR 1254 (10%), Method: PREINCUBATION): inactive; negative | mutagenic call (Test System: AMES SALMONELLA TYPHIMURIUM, Strain/Indicator: TA97, Metabolic Activation: HAMSTER, LIVER, S-9, AROCLOR 1254 (30%), Method: PREINCUBATION): inactive; negative | mutagenic call (Test System: AMES SALMONELLA TYPHIMURIUM, Strain/Indicator: TA97, Metabolic Activation: NONE, Method: PREINCUBATION): inactive; negative | mutagenic call (Test System: AMES SALMONELLA TYPHIMURIUM, Strain/Indicator: TA97, Metabolic Activation: RAT, LIVER, S-9, AROCLOR 1254 (10%), Method: PREINCUBATION): inactive; negative | mutagenic call (Test System: AMES SALMONELLA TYPHIMURIUM, Strain/Indicator: TA97, Metabolic Activation: RAT, LIVER, S-9, AROCLOR 1254 (30%), Method: PREINCUBATION): inactive; negative | mutagenic call [2]: inactive; negative | mutagenic call (Test System: AMES SALMONELLA TYPHIMURIUM, Strain/Indicator: TA98, Metabolic Activation: HAMSTER, LIVER, S-9, AROCLOR 1254 (30%), Method: PREINCUBATION): inactive; negative | mutagenic call [3]: inactive; negative | mutagenic call [4]: inactive; negative | mutagenic call (Test System: AMES SALMONELLA TYPHIMURIUM, Strain/Indicator: TA98, Metabolic Activation: RAT, LIVER, S-9, AROCLOR 1254 (30%), Method: PREINCUBATION): inactive; negative | mutagenic call [5]: inactive; negative | mutagenic call (Test System: AMES SALMONELLA TYPHIMURIUM, Strain/Indicator: TA100, Metabolic Activation: HAMSTER, LIVER, S-9, AROCLOR 1254 (30%), Method: PREINCUBATION): inactive; negative | mutagenic call [1]: inactive; negative | mutagenic call [6]: inactive; negative | mutagenic call (Test System: AMES SALMONELLA TYPHIMURIUM, Strain/Indicator: TA100, Metabolic Activation: RAT, LIVER, S-9, AROCLOR 1254 (30%), Method: PREINCUBATION): inactive; negative | mutagenic call [7]: inactive; negative | mutagenic call (Test System: AMES SALMONELLA TYPHIMURIUM, Strain/Indicator: TA1535, Metabolic Activation: HAMSTER, LIVER, S-9, AROCLOR 1254 (30%), Method: PREINCUBATION): inactive; negative | mutagenic call [8]: inactive; negative | mutagenic call [9]: inactive; negative | mutagenic call (Test System: AMES SALMONELLA TYPHIMURIUM, Strain/Indicator: TA1535, Metabolic Activation: RAT, LIVER, S-9, AROCLOR 1254 (30%), Method: PREINCUBATION): inactive; negative | mutagenic call (Test System: AMES SALMONELLA TYPHIMURIUM, Strain/Indicator: TA1537, Metabolic Activation: HAMSTER, LIVER, S-9, AROCLOR 1254 (30%), Method: PREINCUBATION): inactive; negative | mutagenic call [10]: inactive; negative | mutagenic call (Test System: AMES SALMONELLA TYPHIMURIUM, Strain/Indicator: TA1537, Metabolic Activation: RAT, LIVER, S-9, AROCLOR 1254 (30%), Method: PREINCUBATION): inactive; negative

C=CCNCC=C
mutagenic call [2]: inactive; negative | mutagenic call [3]: inactive; negative | mutagenic call [4]: inactive; negative | mutagenic call [5]: inactive; negative | mutagenic call [1]: inactive; negative | mutagenic call [6]: inactive; negative | mutagenic call [7]: inactive; negative | mutagenic call [8]: inactive; negative | mutagenic call [9]: inactive; negative | mutagenic call (Test System: AMES SALMONELLA TYPHIMURIUM, Strain/Indicator: TA1537, Metabolic Activation: HAMSTER, LIVER, S-9, AROCLOR 1254 (10%), Method: PREINCUBATION): inactive; negative | mutagenic call [10]: inactive; negative | mutagenic call (Test System: AMES SALMONELLA TYPHIMURIUM, Strain/Indicator: TA1537, Metabolic Activation: RAT, LIVER, S-9, AROCLOR 1254 (10%), Method: PREINCUBATION): inactive; negative
